Laboratory results reported in patent publication US8921397B2, “Benzofurane-piperidine compounds” (Hoffmann-La Roche Inc., priority 2011, dated 2014).

How the values were obtained:
[1] = biological target: human D3 receptor (Homo sapiens (Human), UniProt P35462); experiment: Radioligand binding ([3H]-spiperone) to human D3 receptor, HEK293 EBNA membranes; settings: HEK293 EBNA cells expressing human D3 receptor
In short: (§1)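 Membranes from transiently transfected HEK293 EBNA cells (~7.5 μg protein/well) were incubated 1 h at RT with [3H]-spiperone (~0.7 nM for D2, 0.5 nM for D3) and ten compound concentrations (10 μM–0.1 nM) in Tris/NaCl/MgCl2/CaCl2 buffer pH 7.4. Filtration and scintillation counting, nonspecific with 10 μM spiperone; Ki via Cheng-Prusoff.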

[2] = biological target: human 5-HT2A receptor (Homo sapiens (Human), UniProt P28223); experiment: Radioligand binding ([3H]-ketanserin) to human 5-HT2A receptor, HEK293 EBNA membranes; settings: HEK293 EBNA cells expressing human 5-HT2A receptor
In short: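 Membranes from HEK293 EBNA cells transiently expressing the human receptor were incubated 1 h at RT with ~0.7 nM (D2) or 0.5 nM (D3) [3H]-spiperone, or 1.1 nM [3H]-ketanserin (5-HT2A), plus ten compound concentrations (10 μM–0.1 nM). Nonspecific binding was set with 10 μM spiperone; Ki was derived from IC50 via Cheng-Prusoff.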

[3] = biological target: human D2 receptor (Homo sapiens (Human), UniProt P14416); experiment: Radioligand binding ([3H]-spiperone) to human D2 receptor, HEK293 EBNA membranes; settings: HEK293 EBNA cells expressing human D2 receptor
In short: as §1

human 5-HT2A receptor, sequence (P28223 whole entry): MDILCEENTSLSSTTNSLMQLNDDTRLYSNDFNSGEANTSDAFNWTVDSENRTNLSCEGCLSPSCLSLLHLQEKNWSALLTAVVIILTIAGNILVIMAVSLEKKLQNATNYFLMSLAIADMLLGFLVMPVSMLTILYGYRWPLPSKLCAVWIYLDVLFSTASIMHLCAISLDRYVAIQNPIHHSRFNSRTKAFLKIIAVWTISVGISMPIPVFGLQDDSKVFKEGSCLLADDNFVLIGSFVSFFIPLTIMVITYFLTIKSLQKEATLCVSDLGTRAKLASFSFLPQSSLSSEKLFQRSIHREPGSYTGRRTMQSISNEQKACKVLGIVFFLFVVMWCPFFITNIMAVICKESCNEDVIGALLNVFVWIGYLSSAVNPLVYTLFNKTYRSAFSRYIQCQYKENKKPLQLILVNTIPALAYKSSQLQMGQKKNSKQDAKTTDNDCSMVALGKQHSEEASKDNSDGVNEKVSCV
human D2 receptor, sequence (P14416 whole entry): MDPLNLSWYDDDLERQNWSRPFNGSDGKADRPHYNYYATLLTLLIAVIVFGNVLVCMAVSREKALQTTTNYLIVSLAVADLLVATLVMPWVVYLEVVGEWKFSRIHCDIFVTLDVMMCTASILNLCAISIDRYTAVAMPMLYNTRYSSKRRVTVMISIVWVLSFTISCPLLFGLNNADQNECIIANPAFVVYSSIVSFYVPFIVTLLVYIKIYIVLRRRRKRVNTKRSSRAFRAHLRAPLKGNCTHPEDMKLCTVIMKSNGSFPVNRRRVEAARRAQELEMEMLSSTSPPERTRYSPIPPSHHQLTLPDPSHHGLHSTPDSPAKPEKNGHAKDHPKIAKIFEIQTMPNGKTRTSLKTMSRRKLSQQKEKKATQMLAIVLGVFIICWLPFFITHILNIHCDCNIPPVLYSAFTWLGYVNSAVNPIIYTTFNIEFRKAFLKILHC
human D3 receptor, sequence (P35462 whole entry): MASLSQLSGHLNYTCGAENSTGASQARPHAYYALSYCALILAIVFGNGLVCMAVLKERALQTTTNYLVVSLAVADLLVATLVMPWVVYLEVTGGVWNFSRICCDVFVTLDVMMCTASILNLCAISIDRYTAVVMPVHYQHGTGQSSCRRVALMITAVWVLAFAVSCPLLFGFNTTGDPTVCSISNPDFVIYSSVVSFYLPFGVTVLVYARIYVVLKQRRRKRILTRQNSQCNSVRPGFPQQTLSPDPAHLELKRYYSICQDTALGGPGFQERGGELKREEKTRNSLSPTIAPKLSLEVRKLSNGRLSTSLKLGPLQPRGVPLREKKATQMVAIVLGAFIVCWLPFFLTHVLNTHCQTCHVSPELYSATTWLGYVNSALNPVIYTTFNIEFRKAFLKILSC

Row | Compound | Ki [1] [nM] | Ki [2] [nM] | melting point [°C] | Ki [3] [nM]
1 | Cc1nc(-c2ccc(C(=O)N[C@H]3CC[C@H](CCN4CCC(c5coc6ccccc56)CC4)CC3)cc2)no1 [Example 61, trans-N-{4-[2-(4-Benzofuran-3-yl-piperidin-1-yl)-ethyl]-cyclohexyl}-4-(5-methyl-[1,2,4]oxadiazol-3-yl)-benzamide] | 2.87 | 15.1 | 194 | 227
2 | CN1CCN(c2ccc(C(=O)N[C@H]3CC[C@H](CCN4CCC(c5coc6ccccc56)CC4)CC3)cc2)CC1 [Example 62, trans-N-{4-[2-(4-Benzofuran-3-yl-piperidin-1-yl)-ethyl]-cyclohexyl}-4-(4-methyl-piperazin-1-yl)-benzamide] | 6.03 | 8.83 | 242 | 50.1
3 | O=C(N[C@H]1CC[C@H](CCN2CCC(c3coc4ccccc34)CC2)CC1)c1ccc(-c2ccccc2)cc1 [Example 63, Biphenyl-4-carboxylic acid trans-{4-[2-(4-benzofuran-3-yl-piperidin-1-yl)-ethyl]-cyclohexyl}-amide] | 3.37 | 5.21 | 235 | 22.1
4 | O=C(N[C@H]1CC[C@H](CCN2CCC(c3coc4ccccc34)CC2)CC1)c1ccc(-c2cccnc2)cc1 [Example 64, trans-N-{4-[2-(4-Benzofuran-3-yl-piperidin-1-yl)-ethyl]-cyclohexyl}-4-pyridin-3-yl-benzamide] | 4.55 | 12.8 | 224 | 16.7
5 | O=C(N[C@H]1CC[C@H](CCN2CCC(c3coc4ccccc34)CC2)CC1)c1ccc(N2CCOCC2)nc1 [Example 65, trans-N-{4-[2-(4-Benzofuran-3-yl-piperidin-1-yl)-ethyl]-cyclohexyl}-6-morpholin-4-yl-nicotinamide] | 3.49 | 7.56 | 215 | 51.8
6 | O=C(N[C@H]1CC[C@H](CCN2CCC(c3coc4ccccc34)CC2)CC1)c1ccc(N2CCS(=O)(=O)CC2)cc1 [Example 66, trans-N-{4-[2-(4-Benzofuran-3-yl-piperidin-1-yl)-ethyl]-cyclohexyl}-4-(1,1-dioxo-1λ6-thiomorpholin-4-yl)-benzamide] | 3.4 | 10.1 | 269 | 19.2
7 | O=C(N[C@H]1CC[C@H](CCN2CCC(c3coc4ccccc34)CC2)CC1)c1cnc(N2CCOCC2)cn1 [Example 67, 5-Morpholin-4-yl-pyrazine-2-carboxylic acid trans-{4-[2-(4-benzofuran-3-yl-piperidin-1-yl)-ethyl]-cyclohexyl}-amide] | 7.72 | 8.2 | 202 | 106
8 | O=C(N[C@H]1CC[C@H](CCN2CCC(c3coc4ccccc34)CC2)CC1)c1ccc(-n2cccc2)cc1 [Example 68, trans-N-{4-[2-(4-Benzofuran-3-yl-piperidin-1-yl)-ethyl]-cyclohexyl}-4-pyrrol-1-yl-benzamide] | 4.58 | 10.2 | 212 | 34.3
9 | Cc1ccc(C(=O)N[C@H]2CC[C@H](CCN3CCC(c4coc5ccccc45)CC3)CC2)cn1 [Example 69, trans-N-{4-[2-(4-Benzofuran-3-yl-piperidin-1-yl)-ethyl]-cyclohexyl}-6-methyl-nicotinamide] | 2.53 | 5.11 | 203 | 28.1
10 | N#Cc1ccc(C(=O)N[C@H]2CC[C@H](CCN3CCC(c4coc5ccccc45)CC3)CC2)cc1 [Example 70, trans-N-{4-[2-(4-Benzofuran-3-yl-piperidin-1-yl)-ethyl]-cyclohexyl}-4-cyano-benzamide] | 2.68 | 5.89 | 195 | 15.2
11 | CC(C)(C)Oc1ccc(C(=O)N[C@H]2CC[C@H](CCN3CCC(c4coc5ccccc45)CC3)CC2)cc1 [Example 71, trans-N-{4-[2-(4-Benzofuran-3-yl-piperidin-1-yl)-ethyl]-cyclohexyl}-4-tert-butoxy-benzamide] | 2.14 | 5.56 | 186 | 168
12 | CO[C@H]1CC[C@H](CC(=O)N[C@H]2CC[C@H](CCN3CCC(c4coc5ccccc45)CC3)CC2)CC1 [Example 72, trans-N-{4-[2-(4-Benzofuran-3-yl-piperidin-1-yl)-ethyl]-cyclohexyl}-2-trans-(4-methoxy-cyclohexyl)-acetamide] | 3.09 | 8.14 | 179 | 67.4
13 | O=C(N[C@H]1CC[C@H](CCN2CCC(c3coc4ccccc34)CC2)CC1)c1ccc2ncccc2c1 [Example 73, Quinoline-6-carboxylic acid trans-{4-[2-(4-benzofuran-3-yl-piperidin-1-yl)-ethyl]-cyclohexyl}-amide] | 2.42 | 11 | 192 | 103
14 | O=C(Cc1ccc2c(c1)OCO2)N[C@H]1CC[C@H](CCN2CCC(c3coc4ccccc34)CC2)CC1 [Example 74, trans-2-Benzo[1,3]dioxol-5-yl-N-{4-[2-(4-benzofuran-3-yl-piperidin-1-yl)-ethyl]-cyclohexyl}-acetamide] | 1.66 | 11.5 | 177 | 92.5
15 | CS(=O)(=O)c1ccc(C(=O)N[C@H]2CC[C@H](CCN3CCC(c4coc5ccccc45)CC3)CC2)s1 [Example 75, 5-Methanesulfonyl-thiophene-2-carboxylic acid trans-{4-[2-(4-benzofuran-3-yl-piperidin-1-yl)-ethyl]-cyclohexyl}-amide] | 3.89 | 7.85 | 214 | 60.8
16 | O=C(CC1COC1)N[C@H]1CC[C@H](CCN2CCC(c3coc4ccccc34)CC2)CC1 [Example 76, trans-N-{4-[2-(4-Benzofuran-3-yl-piperidin-1-yl)-ethyl]-cyclohexyl}-2-oxetan-3-yl-acetamide] | 1.64 | 5.25 | 197 | 34.2
17 | CC(C)(C)C1CCC(C(=O)N[C@H]2CC[C@H](CCN3CCC(c4coc5ccccc45)CC3)CC2)CC1 (stereo partly drawn) [Example 77, 4-tert-Butyl-cyclohexanecarboxylic acid trans-{4-[2-(4-benzofuran-3-yl-piperidin-1-yl)-ethyl]-cyclohexyl}-amide] | 9.48 | 6.03 | 199 | 345
18 | O=C(N[C@H]1CC[C@H](CCN2CCC(c3coc4ccccc34)CC2)CC1)C12CC3CC(CC(C3)C1)C2 [Example 78, Adamantane-1-carboxylic acid trans-{4-[2-(4-benzofuran-3-yl-piperidin-1-yl)-ethyl]-cyclohexyl}-amide] | 12.7 | 17.4 | 200 | 129
19 | O=C(N[C@H]1CC[C@H](CCN2CCC(c3coc4ccccc34)CC2)CC1)C1CCC(C(F)(F)F)CC1 (stereo partly drawn) [Example 79, 4-Trifluoromethyl-cyclohexanecarboxylic acid trans-{4-[2-(4-benzofuran-3-yl-piperidin-1-yl)-ethyl]-cyclohexyl}-amide] | 6.8 | 11.2 | 190 | 73
